Biological target: T1, ER (Homo sapiens, UniProt P03372)
T1 construct: host or cells: T47D and MCF7 human breast cancer cells
T1 sequence (P03372 1-595): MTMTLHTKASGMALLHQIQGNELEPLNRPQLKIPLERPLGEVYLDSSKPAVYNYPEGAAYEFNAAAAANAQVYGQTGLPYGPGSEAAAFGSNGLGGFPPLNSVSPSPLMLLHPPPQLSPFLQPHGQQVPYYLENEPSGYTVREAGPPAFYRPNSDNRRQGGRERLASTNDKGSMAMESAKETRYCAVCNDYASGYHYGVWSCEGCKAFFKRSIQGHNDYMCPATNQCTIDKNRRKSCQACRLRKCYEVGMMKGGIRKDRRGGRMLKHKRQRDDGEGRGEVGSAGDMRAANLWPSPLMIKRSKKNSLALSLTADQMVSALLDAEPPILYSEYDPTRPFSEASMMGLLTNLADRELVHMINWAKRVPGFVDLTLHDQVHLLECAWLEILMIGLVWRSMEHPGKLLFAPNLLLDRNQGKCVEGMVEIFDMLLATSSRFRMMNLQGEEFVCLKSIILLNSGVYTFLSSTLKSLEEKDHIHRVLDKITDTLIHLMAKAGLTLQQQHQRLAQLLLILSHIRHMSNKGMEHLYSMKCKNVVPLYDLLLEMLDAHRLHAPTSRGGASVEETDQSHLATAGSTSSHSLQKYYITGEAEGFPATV
Experiment: ER degradation activity, in-cell western blot analysis in T47D cells
Type: cell-based
Details: 16 hours, Table A does not say which cell line (T47D or MCF7), read-out: Potency (DC50)
Experimental: ER degradation activity was evaluated in the human breast cancer cell line T47D and MCF7 purchased from the American Type Culture Collection (ATCC), Manassas, VA, and maintained and cultured in Dulbecco's Modified Eagle's medium (DMEM) containing 10% fetal bovine serum, 1 unit/ml of penicillin and 1 μg/ml of streptomycin.
The protocol for the in-cell western blot analysis: a. seed cells in black-sided/clear bottom 96- or 384-well plates at 40,000 or 10,000 cells/well, overnight; b. add diluted compounds (final 0.5% DMSO), 16 hours. […] RT 2 h, gentle shaking. Negative control: cells plus secondary antibodies (no primary antibodies); e. wash ×4 with PBS+0.05-0.1% Tween 20, gentel shaking; f. anti-rabbit-680 and anti-mouse-800 (both 1:1000 in LiCor block+0.05% Tween20, RT 1 h, gentle shaking, no light. LI-COR: 0.2% to reduce background; g. wash×4 with PBS+0.05% Tween 20, gental shaking; h. add 100 μL or 25 μL of PBS to each well and read on CLX plate reader. The relative ER percentage in treated cells were obtained by comparing the values of treated wells to those in untreated and DMSO-treated wells as 100%.

Row | SMILES | DC50 [nM]
1 | O=C1CCC(N2C(=O)c3cc4c(cc3C2=O)CN(CC(=O)N2CC3(C2)CN(c2ccc([C@@H]5c6ccc(O)cc6CC[C@@H]5c5ccccc5)cc2)C3)C4)C(=O)N1 (mixture of isomers) [E 8, 2-(2,6-dioxopiperidin-3-yl)-6-(2-(6-(4-((1R,2S)-6-hydroxy-2-phenyl-1,2,3,4-tetrahydronaphthalen-1-yl)phenyl)-2,6-diazaspiro[3.3]heptan-2-yl)-2-oxoethyl)-6,7-dihydropyrrolo[3,4-f]isoindole-1,3(2H,5H)-dione] | 10 to 100
2 | O=C1CCC(N2C(=O)c3cc4c(cc3C2=O)CN(CC(=O)N2CC3(CCN(c5ccc([C@@H]6c7ccc(O)cc7CC[C@@H]6c6ccccc6)cc5)CC3)C2)C4)C(=O)N1 (mixture of isomers) [E 9, Rac-2-(2,6-dioxopiperidin-3-yl)-6-(2-(7-(4-((1R,2S)-6-hydroxy-2-phenyl-1,2,3,4-tetrahydronaphthalen-1-yl)phenyl)-2,7-diazaspiro[3.5]nonan-2-yl)-2-oxoethyl)-6,7-dihydropyrrolo[3,4-f]isoindole-1,3(2H,5H)-dione] | < 10
3 | O=C1CCC(N2C(=O)c3cc4c(cc3C2=O)CN(CC(=O)N2CCC3(CC2)CN(c2ccc([C@@H]5c6ccc(O)cc6CC[C@@H]5c5ccccc5)cc2)C3)C4)C(=O)N1 (mixture of isomers) [E 10, Rac-2-(2,6-dioxopiperidin-3-yl)-6-(2-(2-(4-((1R,2S)-6-hydroxy-2-phenyl-1,2,3,4-tetrahydronaphthalen-1-yl)phenyl)-2,7-diazaspiro[3.5]nonan-7-yl)-2-oxoethyl)-6,7-dihydropyrrolo[3,4-f]isoindole-1,3(2H,5H)-dione] | 10 to 100
4 | O=C1CCC(N2C(=O)c3cc4c(cc3C2=O)CN(CC(=O)N2CCC3(CC2)CN(c2ccc([C@@H]5c6ccc(O)cc6CC[C@@H]5c5ccc(F)cc5Cl)cc2)C3)C4)C(=O)N1 (mixture of isomers) [E 11, rac-6-(2-(2-(4-((1R,2S)-2-(2-chloro-4-fluorophenyl)-6-hydroxy-1,2,3,4-tetrahydronaphthalen-1-yl)phenyl)-2,7-diazaspiro[3.5]nonan-7-yl)-2-oxoethyl)-2-(2,6-dioxopiperidin-3-yl)-6,7-dihydropyrrolo[3,4-f]isoindole-1,3(2H,5H)-dione] | 10 to 100
5 | O=C1CCC(N2C(=O)c3cc4c(cc3C2=O)CN(C(=O)C2CCN(C3CCN(c5ccc([C@@H]6c7ccc(O)cc7CC[C@@H]6c6ccc(F)cc6)cc5)CC3)CC2)C4)C(=O)N1 (mixture of isomers) [E 12, Rac-2-(2,6-dioxopiperidin-3-yl)-6-(1′-(4-((1R,2S)-2-(4-fluorophenyl)-6-hydroxy-1,2,3,4-tetrahydronaphthalen-1-yl)phenyl)-[1,4′-bipiperidine]-4-carbonyl)-6,7-dihydropyrrolo[3,4-f]isoindole-1,3(2H,5H)-dione] | < 10
6 | O=C1CCC(N2C(=O)c3cc4c(cc3C2=O)CN(C2CCN(C(=O)C3CCN(c5ccc([C@@H]6c7ccc(O)cc7CC[C@@H]6c6ccccc6)cc5)CC3)CC2)C4)C(=O)N1 (mixture of isomers) [E 13, Rac-2-(2,6-dioxopiperidin-3-yl)-6-(1-(1-(4-((1R,2S)-6-hydroxy-2-phenyl-1,2,3,4-tetrahydronaphthalen-1-yl)phenyl)piperidine-4-carbonyl)pi570 peridin-4-yl)-6,7-dihydropyrrolo[3,4-f]isoindole-1,3(2H,5H)-dione] | < 10
7 | O=C1CCC(N2C(=O)c3cc4c(cc3C2=O)CN(CC2CCN(C(=O)C3CCN(c5ccc([C@@H]6c7ccc(O)cc7CC[C@@H]6c6ccccc6)cc5)CC3)CC2)C4)C(=O)N1 (mixture of isomers) [E 14, Rac-2-(2,6-dioxopiperidin-3-yl)-6-((1-(1-(4-((1R,2S)-6-hydroxy-2-phenyl-1,2,3,4-tetrahydronaphthalen-1-yl)phenyl)piperidine-4-carbonyl)piperidin-4-yl)methyl)-6,7-dihydropyrrolo[3,4-f]isoindole-1,3(2H,5H)-dione] | 10 to 100
8 | O=C1CCC(N2C(=O)c3cc4c(cc3C2=O)CN(C2CN(C(=O)C3CCN(c5ccc([C@@H]6c7ccc(O)cc7CC[C@@H]6c6ccccc6)cc5)CC3)C2)C4)C(=O)N1 (mixture of isomers) [E 15, Rac-2-(2,6-dioxopiperidin-3-yl)-6-(1-(1-(4-((1R,2S)-6-hydroxy-2-phenyl-1,2,3,4-tetrahydronaphthalen-1-yl)phenyl)piperidine-4-carbonyl)azetidin-3-yl)-6,7-dihydropyrrolo[3,4-f]isoindole-1,3(2H,5H)-dione] | 10 to 100
9 | O=C1CCC(N2C(=O)c3cc4c(cc3C2=O)CN(CC2CN(C(=O)C3CCN(c5ccc([C@@H]6c7ccc(O)cc7CC[C@@H]6c6ccccc6)cc5)CC3)C2)C4)C(=O)N1 (mixture of isomers) [E 16, Rac-2-(2,6-dioxopiperidin-3-yl)-6-((1-(1-(4-((1R,2S)-6-hydroxy-2-phenyl-1,2,3,4-tetrahydronaphthalen-1-yl)phenyl)piperidine-4-carbonyl)azetidin-3-yl)methyl)-6,7-dihydropyrrolo[3,4-f]isoindole-1,3(2H,5H)-dione] | 10 to 100
10 | O=C1CCC(N2C(=O)c3cc4c(cc3C2=O)CN(CC(=O)N2CCC3(C2)CN(c2ccc([C@@H]5c6ccc(O)cc6CC[C@@H]5c5ccccc5)cc2)C3)C4)C(=O)N1 (mixture of isomers) [E 17, rac-2-(2,6-dioxopiperidin-3-yl)-6-(2-(2-(4-((1R,2S)-6-hydroxy-2-phenyl-1,2,3,4-tetrahydronaphthalen-1-yl)phenyl)-2,6-diazaspiro[3.4]octan-6-yl)-2-oxoethyl)-6,7-dihydropyrrolo[3,4-f]isoindole-1,3(2H,5H)-dione] | 10 to 100

The remaining lines, values ahead:

Row | DC50 [nM] | SMILES
11 | 10 to 100 | O=C1CCC(N2C(=O)c3cc4c(cc3C2=O)CN(CC(=O)N2CC3(C2)CN(c2ccc([C@@H]5c6ccc(O)cc6CC[C@@H]5c5ccc(F)cc5)cc2)C3)C4)C(=O)N1 (mixture of isomers) [E 18, Rac-2-(2,6-dioxopiperidin-3-yl)-6-(2-(6-(4-((1R,2S)-2-(4-fluorophenyl)-6-hydroxy-1,2,3,4-tetrahydronaphthalen-1-yl)phenyl)-2,6-diazaspiro[3.3]heptan-2-yl)-2-oxoethyl)-6,7-dihydropyrrolo[3,4-f]isoindole-1,3(2H,5H)-dione]
12 | < 10 | O=C1CCC(N2C(=O)c3cc4c(cc3C2=O)CN(CC(=O)N2CC3(CCN(c5ccc([C@@H]6c7ccc(O)cc7CC[C@@H]6c6ccc(F)cc6)cc5)CC3)C2)C4)C(=O)N1 (mixture of isomers) [E 19, Rac-2-(2,6-dioxopiperidin-3-yl)-6-(2-(7-(4-((1R,2S)-2-(4-fluorophenyl)-6-hydroxy-1,2,3,4-tetrahydronaphthalen-1-yl)phenyl)-2,7-diazaspiro[3.5]nonan-2-yl)-2-oxoethyl)-6,7-dihydropyrrolo[3,4-f]isoindole-1,3(2H,5H)-dione]
13 | 10 to 100 | O=C1CCC(N2C(=O)c3cc4c(cc3C2=O)CN(CC(=O)N2CCC3(CC2)CCN(c2ccc([C@@H]5c6ccc(O)cc6CC[C@@H]5c5ccccc5)cc2)CC3)C4)C(=O)N1 (mixture of isomers) [E 20, Rac-2-(2,6-dioxopiperidin-3-yl)-6-(2-(9-(4-((1R,2S)-6-hydroxy-2-phenyl-1,2,3,4-tetrahydronaphthalen-1-yl)phenyl)-3,9-diazaspiro[5.5]undecan-3-yl)-2-oxoethyl)-6,7-dihydropyrrolo[3,4-f]isoindole-1,3(2H,5H)-dione]
14 | > 100 | O=C1CCC(N2C(=O)c3cc4c(cc3C2=O)CN(CC(=O)N2CCCC(Oc3ccc([C@@H]5c6ccc(O)cc6CC[C@@H]5c5ccccc5)cc3)C2)C4)C(=O)N1 (mixture of isomers) [E 21, Rac-2-(2,6-dioxopiperidin-3-yl)-6-(2-(3-(4-((1R,2S)-6-hydroxy-2-phenyl-1,2,3,4-tetrahydronaphthalen-1-yl)phenoxy)piperidin-1-yl)-2-oxoethyl)-6,7-dihydropyrrolo[3,4-f]isoindole-1,3(2H,5H)-dione]
15 | > 100 | O=C1CCC(N2C(=O)c3cc4c(cc3C2=O)CN(C2CC(C(=O)N3CCCC(Oc5ccc([C@@H]6c7ccc(O)cc7CC[C@@H]6c6ccccc6)cc5)C3)C2)C4)C(=O)N1 (mixture of isomers) [E 22, Rac-2-(2,6-dioxopiperidin-3-yl)-6-(3-(3-(4-((1R,2S)-6-hydroxy-2-phenyl-1,2,3,4-tetrahydronaphthalen-1-yl)phenoxy)piperidine-1-carbonyl)cyclobutyl)-6,7-dihydropyrrolo[3,4-f]isoindole-1,3(2H,5H)-dione]

From patent US20240190880A1 (THE REGENTS OF THE UNIVERSITY OF MICHIGAN, priority 2021, published 2024)
